This data set has as its system A431 human epidermoid carcinoma xenografts. Description: DCE-MRI with B22956/1 in A431 xenografts 24 h after PTX or vehicle (Example 5). It counts as in vivo, NCR athymic nude mice. Here is the method: Human epidermoid carcinoma cell line (A431) (supplied by ATCC) were cultured in DMEM (Dulbecco's Modified Eagle Medium) High Glucose medium (4.5 g/L glucose) (Sigma-Aldrich, Steinheim, Germany), supplemented with 10% heat-inactivated foetal bovine serum (Lonza, Verviers, Belgium), 2 mM glutamine (Lonza, Verviers, Belgium), 100 IU/mL penicillin and 100 μg/mL streptomycin (Lonza, Verviers, Belgium) and maintained in a humidified atmosphere with 5% CO2 at 37° C. Exponentially growing cells were harvested and washed two times with PBS. Two million A431 cells were resuspended in 0.1 mL PBS and injected subcutaneously in the right and left flank of each of the 6 week old female mice. Tumors development were followed daily after inoculation, initially by palpation and by caliper once the mass will be established, until the day of the sacrifice. Mice were distributed randomly into 2 groups (Treated and Control) on the day of initial drug treatment when the average tumor diameter reached 7-8 mm, measured by caliper.
Paclitaxel (PTX) (Indena S.p.A., Milan, Italy): PTX solution was prepared in 50% Cremophor EL and 50% ethanol as described in Example 4 and further diluted in saline immediately before use to a final concentration of 2 mg/mL. PTX was administered intravenously (i.v., singular administration) at a dose of 20 mg/kg.
To this extent, 8 mice were divided into 2 groups; 2 animals of each of the two obtained groups were treated with PTX and 2 with vehicle (CTRL). Treatments started 14 days after the tumor implant, when the tumor reached a diameter in the range 7-8 mm, measured by caliper. The animals were administered with PTX or with CTRL at day 14 from the tumor implant (considered as DAY1). 24 hours after the treatment with PTX or CTRL (DAY2) each animal was injected with B22956/1 (used as non-limiting example of contrast agent according to the invention) and imaged with DCE-MRI. MRI imaging was performed pre-contrast and at different time points post-contrast agents administration. […] At DAY3 all the mice were imaged in vivo by Optical Imaging (01); then FITC-Albumin (10 mg/mL) was injected and 5 minutes later the animals were sacrificed. Tumors were excised and a second Optical Imaging acquisition was performed ex vivo. Finally tumors were prepared for the histological examination.
B22956/1, (Bracco Imaging S.p.A., obtained as above referred) was used as MRI contrast agent (CA). B22956/1 was intravenously injected at the dose of 100 μmol/kg, with an administration volume of 4 mL/kg.
24 hours after the treatment with PTX or CTRL each animal was injected with the CA (B22956/1) and imaged with DCE-MRI. The contrast agent was injected intravenously at an injection rate of about 1 mL/min through a catheter placed in the tail vein of the animal. For MR imaging experiments, animals were pre-anaesthetized with isofluorane gas (about 1%) in a mixture of 33% O2 and 66% N2O and the anesthesia was then maintained by adjustment of gas level in function of breath rate. MRI imaging was performed at different time points post-contrast agents administration. In particular, pre-contrast coronal and axial Rare T2-weighted anatomical images were acquired with the optimized parameters for high resolution with a good contrast, to detect the tumour mass. 3D FLASH images (Fast Low Angle Shot; TR about 6-7 milliseconds) with variable flip angle θ (FA=5-90° were acquired before contrast agent injection to estimate the tumour and muscle longitudinal relaxation time by using matrix 128×128×8, slice thickness ˜1.5 mm, FOV ˜3.0×3.0 cm. The same sequences (FA=20°, TR about 6-7 milliseconds) were then acquired to follow CA dynamic in tumor and blood vessels after CA i.v. injection. Flow artifacts were avoided by placing two thick saturation bands just above and below the measured slices. […]

The mark [1] stands for this setting: A431 tumors 24 h after PTX 20 mg/kg i.v., mean of 8 tumors.

Marks after values point to notes of the source that are not given here.

As to `C[C@H](CCC(=O)[O-])[C@H]1CC[C@H]2[C@@H]3CC[C@@H]4C[C@@H](NC(=O)CC[C@@H](C(=O)[O-])N(CCN(CC(=O)[O-])CC(=O)[O-])CCN(CC(=O)[O-])CC(=O)[O-])CC[C@]4(C)[C@H]3C[C@H](O)[C@]12C.[Gd+3].[Na+].[Na+].[Na+]` [B22956/1, Gadocoletic acid trisodium salt], the “extravasation of the contrast agent within the first minute after injection” value (mouse, in vivo) was “negligible”.

As to `CC(=O)O[C@H]1C(=O)[C@@]2(C)[C@H]([C@H](OC(=O)c3ccccc3)[C@]3(O)C[C@H](OC(=O)[C@H](O)[C@@H](NC(=O)c4ccccc4)c4ccccc4)C(C)=C1C3(C)C)[C@]1(OC(C)=O)CO[C@@H]1C[C@@H]2O` [PTX, Paclitaxel], the “AUC10.20 (of B22956/1), Mean” value (A431 tumors 24 h after PTX 20 mg/kg i.v., 10 to 20 min post injection, mean of 8 tumors) was 27*. Further, where the note is “A431 tumors 24 h after PTX 20 mg/kg i.v., 20 to 30 min post injection, mean of 8 tumors”, the “AUC20.30 (of B22956/1), Mean” value is recorded as 25.3**. In addition, the “ktrans (of B22956/1), Mean” value (A431 tumors 24 h after PTX 20 mg/kg i.v., B22956/1 100 μmol/kg, mean of 8 tumors) was 0.0255*. Besides, under setting [1], the “AVGENH (of B22956/1), Mean” value was 54*; the “EARLYAUCRATIO (of B22956/1), Mean” value was 0.036; the “IAUC1 (of B22956/1), Mean” value came to 0.8; the “LATEAUCRATIO (of B22956/1), Mean” value is given as 1.14**. Under setting [1], the “fPV (of B22956/1), Mean” value stood at 0.038 and the “kep (of B22956/1), Mean” value worked out at 0.112.

The values above are taken from patent US9952300B2, “Dynamic contrast enhanced MRI method and agents for the assessment of the macromolecular transport within pathologic tissues” (BRACCO IMAGING S.P.A., priority 2012, dated 2018).
